{
  "source": "patent US5965539A",
  "about": "“Inhibitors of prenyl transferases” (Univeristy of Pittsburgh, priority 1996, dated 1999)",
  "key": {"FTase": {"target": "T1, FTase (Homo sapiens, UniProt P49356)", "T1 construct": "FTase and GGTase I activities from 60,000×g supernatants of human Burkitt lymphoma (Daudi) cells; endogenous in cells; host or cells: human Burkitt lymphoma (Daudi) cells, 60,000xg supernatant (partially purified)", "T1 sequence (P49356 whole entry)": "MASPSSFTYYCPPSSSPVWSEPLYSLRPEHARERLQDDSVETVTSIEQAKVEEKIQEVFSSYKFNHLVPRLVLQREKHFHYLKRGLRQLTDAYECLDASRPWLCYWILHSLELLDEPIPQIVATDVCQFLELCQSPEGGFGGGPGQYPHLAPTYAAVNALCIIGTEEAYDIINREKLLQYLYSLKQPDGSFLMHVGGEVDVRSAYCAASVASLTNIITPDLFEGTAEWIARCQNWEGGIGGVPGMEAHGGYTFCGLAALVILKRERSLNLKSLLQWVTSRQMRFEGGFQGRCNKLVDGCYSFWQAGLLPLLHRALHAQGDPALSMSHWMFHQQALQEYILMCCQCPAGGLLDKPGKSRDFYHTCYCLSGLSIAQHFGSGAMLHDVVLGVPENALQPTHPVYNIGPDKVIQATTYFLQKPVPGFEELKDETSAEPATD", "test": "FTase activity assay: transfer of [3H]farnesyl from FPP to recombinant H-Ras-CVLS, Daudi 60,000xg supernatant", "type": "biochemical", "conditions": "Table 1"}, "RasGG processing": {"test_system": "RasGG processing", "conditions": "5 μM, FIG. 2B", "procedure": "(§1) H-RasF cells (45) were seeded on day 0 in 100 mm Dishes (costar) in Dulbecco's modified Eagles medium (GIBCO) and allowed to grow to 40-60% confluency. […] On day 3, cells were washed one time with ice cold PBS and were collected and lysed by incubation for 30-60 min on ice in lysis buffer (41). Lysates were cleared (14,000 rpm, 4° C., 15 min) and supernatants collected. Equal amounts of lysate were separated on a 12.5% SDS-PAGE, transfered to nitrocellulose, and a western blot performed using a anti-Ras antibody (Y13-238, ATCC) or anti-Rap1A antibody (Santa Cruz Biotechnology, Santa Cruz, Calif.). Antibody reactions were visualized using peroxidase-conjugated goat anti-rat IgG for Y13-238 and peroxidase-conjugated goat anti-rabbit IgG for Rap1A and an enhanced chemiluminescence detection system (ECL; Amersham Corp.)"}, "[1]": {"test_system": "endogenous Ras processing", "conditions": "5 μM, pZIPneo and Raf cells", "procedure": "as §1"}, "[2]": {"test_system": "oncogenic K-Ras4B activation of MAP kinase", "test": "Oncogenic K-Ras4B activation of MAP kinase, immunoblot", "type": "cell-based", "conditions": "0-30 μM tested", "source_text": "Equal amounts of protein were separated on a 15% SDS-PAGE, transferred to nitrocellulose, and immunoblotted using an anti-MAP kinase antibody (erk2, monoclonal, UB1, Lake Placid, N.Y.). Antibody reactions were visualized using peroxidase-conjugated donkey anti-mouse IgG (Jackson ImmunoResearch Laboratories Inc., West Grove, Pa.) and an enhanced chemiluminescence detection system (ECL, Amersham Corp.)"}, "[3]": {"test_system": "Calu-1 human lung carcinoma", "conditions": "50 mg/kg once daily", "source_text": "Calu-1 (Panel A) and NCI-H810 cells (Panel B) were purchased from ATCC and grown in McCoy's 5A medium in 10% FBS (Fetal Bovine Serum) and RPMI 1640 in 10% FBS, respectively. The cells were harvested, resuspended in PBS and injected s.c. into the right and left flank of 8 week old female nude mice (10^7 cells/flank). Nude mice (Harlan Sprague Dawley, Indianapolis, Ind.) were maintained in accordance with the Institutional Animal Care and Use Committee (IACUC) procedures and guidelines. On day 32 after s.c. implantation of tumors, animals were dosed i.p. with 0.2 ml once daily for 36 days. […] The tumor volumes were determined by measuring the length (l) and the width (w) and calculating the volume (V=(l)×(w)^2 /2). Data are presented as the average volume of eight tumors in each group for each cell line. Statistical significance between control and treated groups were evaluated by using student t test (*P<0.05).\nIn this model, tumors from two human lung carcinoma cell lines are implanted subcutaneously. One of these (Calu-1) harbors a K-Ras oncogenic mutation and has a deletion of the tumor suppressor gene p53. The other human lung carcinoma ([…]) has no Ras mutations."}, "[4]": {"test_system": "H-RasF transformed NIH 3T3 cells", "conditions": "50 mg/kg once daily", "procedure": "A. Antitumor efficacy was carried out as described in FIG. 3 except that animals were randomly assigned to four groups each of 4 mice each (2 tumors per mouse). […] B. Ras processing was carried out 5 hours after the last treatement on day 17. Tumors were extracted from the animals, tissumized, and lysed in lysis buffer as described in FIG. 1. Lysates (25 μg) were electrophoresed on a 12.5% SDS-PAGE and immunoblotted with anti-Ras antibody Y13-238 as described previously. The blots were then reprobed with anti-Rap1A antibody (Santa Cruze Biotechnologies, Santa Cruz, Calif.).\nThe tumor sizes at the end of 17 days were 2490 mm^3 for saline, 1793 mm^3 for 10 mg/kg, 1226 mm^3 for 50 mg/kg and 624 mm^3 for 100 mg/kg treated animals. […] Tumors from control animals contained only fully processed Ras which migrates faster in SDS-PAGE gels (FIG. 11B). […] Thus, the extent of tumor growth inhibition correlated with the extent of inhibition of Ras processing."}, "Ras/Raf complexes": {"test_system": "Ras/Raf complexes", "conditions": "5 μM, H-RasF cells", "method": "Cells were seeded on day 0 in 100 mm dishes in 10 ml Dulbecco's Modified Eagles Medium (GIBCO) supplemented with 10% calf serum (Hyclone) and 1% pen/strep (GIBCO). […] On day 3, cells were collected by centrifugation in ice cold PBS. Cell pellets were then resuspended in ice cold hypotonic buffer (10 mM Tris, pH 7.5, 5 mM MgCl2, 1 mM DTT, 1 mM PMSF) and cells were sonicated to break up cell pellet to promote separation of cytosol and membrane. The cell suspension was then centrifuged at 2,000 rpm for 10 min to clear debris after which the supernatant was loaded in ultrocentrifuge tubes and spun for 30 min at 100,000×g to SW Ti55 Rotor to separate membrane and cytosol fractions. The cytosol and membrane fractions were lysed on ice for 60 min in buffer containing 30 mM HEPES, pH 7.5, 1% TX-100, 10% glycerol, 10 mM NaCl, 5 mM MgCl2, 2 mM Na3 VO4, 25 mM NaF, 1 mM EGTA, 10 μM soybean trypsin inhibitor, 25 μg/ml leupeptin, 10 μg/ml aprotinin, 2 mM PMSF). The lysates were clarified by centrifugation. Equal amounts of cytosol and membrane fractions were immunoprecipitated using 50 μl of a 25% Protein-A Sepharose Cl-4B suspension (Sigma) with 1 μf/ml anti-c-Raf-1 (SC133, Santa Cruz Biotechnology, Santa Cruz, Calif.). The samples were tumbled at 4° C. for 60 min and then washed 5 times in 50 mM HEPES, pH 7.5, 100 mM NaCl, 5 mM MgCl2, 0.1% TX-100, 10% glycerol, 20 mM NaF. […]"}, "[5]": {"test_system": "H-RasGG activation of MAPK", "conditions": "5 μM, FIG. 5B"}, "[6]": {"test_system": "oncogenic Raf activation of MAPK", "conditions": "5 μM, FIG. 5B"}},
  "data": [
    {"smiles": "COC(=O)[C@H](CCSC)NC(=O)c1ccc(NC[C@@H](N)CS)cc1-c1ccccc1", "note": "[FTI-277, 4-N-[2(R)-Amino-3-mercaptopropyl]amino-2-phenylbenzoyl methionine methyl ester]", "values": [
      {"measurement": "GG/F", "setting": "FTase; ratio GGTase I IC50 / FTase IC50", "result": 32},
      {"measurement": "IC50", "setting": "FTase; read-out: FTase IC50", "result": 50, "unit": "nM"},
      {"measurement": "processing of RasGG", "setting": "RasGG processing", "result": "not affected"},
      {"measurement": "processing of endogenous Ras", "setting": "[1]", "result": "blocked"},
      {"measurement": "lowest concentration inhibiting K-Ras4B MAP kinase activation", "setting": "[2]", "result": 30, "unit": "µM"},
      {"measurement": "tumor growth of Calu-1", "setting": "[3]", "result": "inhibited the growth of Calu-I cells to the same extent"},
      {"measurement": "tumor growth of H-RasF transformed NIH 3T3 cells", "setting": "[4]", "result": "inhibited tumor growth"},
      {"measurement": "Ras/Raf association in membrane and cytosolic fractions", "setting": "Ras/Raf complexes", "result": "accumulation of Ras/Raf complexes in the cytosolic but not membrane fractions"},
      {"measurement": "block of H-RasGG activation of MAPK", "setting": "[5]", "result": "able to block H-RasF but not H-RasGG activation of MAPK"},
      {"measurement": "block of oncogenic Raf activation of MAPK", "setting": "[6]", "result": "not blocked"}
    ]}
  ]
}
